Results taken from US8822449B2, “Substituted aminoindanes and analogs thereof, and the pharmaceutical use thereof” (Sanofi, priority 2008, dated 2014).
pIC50: −log10 of the molar value.

Biological target: T1, sodium-proton exchanger of subtype 3 (NHE3) (Homo sapiens, UniProt P48764)
T1 construct: expressed in transfected cells
T1 sequence (P48764 26-834): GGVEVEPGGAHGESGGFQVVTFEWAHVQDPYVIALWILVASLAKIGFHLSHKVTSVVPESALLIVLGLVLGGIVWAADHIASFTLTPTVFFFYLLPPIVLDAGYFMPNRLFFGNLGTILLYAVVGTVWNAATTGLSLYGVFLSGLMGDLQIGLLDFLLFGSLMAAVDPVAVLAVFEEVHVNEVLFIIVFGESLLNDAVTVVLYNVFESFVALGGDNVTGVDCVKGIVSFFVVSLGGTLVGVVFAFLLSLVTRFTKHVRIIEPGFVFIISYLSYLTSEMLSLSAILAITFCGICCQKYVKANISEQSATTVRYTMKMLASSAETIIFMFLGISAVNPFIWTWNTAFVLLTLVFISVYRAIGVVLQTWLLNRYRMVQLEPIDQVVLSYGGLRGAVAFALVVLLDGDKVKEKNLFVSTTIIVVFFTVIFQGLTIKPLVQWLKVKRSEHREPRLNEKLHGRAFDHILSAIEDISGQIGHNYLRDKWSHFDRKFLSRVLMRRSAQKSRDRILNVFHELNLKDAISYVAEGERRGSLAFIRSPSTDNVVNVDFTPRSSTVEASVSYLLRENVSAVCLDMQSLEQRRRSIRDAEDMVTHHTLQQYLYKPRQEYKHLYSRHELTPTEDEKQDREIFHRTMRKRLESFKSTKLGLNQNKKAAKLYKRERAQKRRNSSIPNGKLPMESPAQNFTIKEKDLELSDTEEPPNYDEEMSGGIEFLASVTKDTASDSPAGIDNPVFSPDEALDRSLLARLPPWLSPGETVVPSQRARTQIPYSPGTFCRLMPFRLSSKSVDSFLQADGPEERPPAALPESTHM
Assay: Recovery of intracellular pH (pHi) after acidification in LAP1 cells stably expressing NHE3 (BCECF fluorescence, FLIPR)
Assay type: cell-based
Settings: LAP1 cells stably expressing NHE3; pH recovery after acidification; range 1 is % inhibition at 10 μM; read-out: Activity range (inhibitory effect on NHE3)

inhibition at 10 µM [%] | pIC50 | SMILES
20 to 50 | – | CC(=O)Nc1cccc(O[C@H]2c3ccccc3C[C@@H]2N2CCNCC2)c1 (racemic) [Example 639, N-[3-(rac-trans-(1,2)-2-piperazin-1-ylindan-1-yloxy)phenyl]acetamide]
– | 5.00 to 6.00 | N[C@@H]1CCCN([C@@H]2Cc3ccccc3[C@H]2Oc2ccc(Br)cc2-c2cc[nH]n2)C1 (racemic) [Example 118, (R)-1-{rac-trans-(1,2)-1-[4-bromo-2-(1H-pyrazol-3-yl)phenoxy]indan-2-yl}piperidin-3-ylamine]
20 to 50 | – | Cc1ccc(O[C@H]2c3ccccc3CC[C@@H]2N2CCC[C@H](N)C2)c(Br)c1 (racemic) [Example 150, (S)-1-[rac-trans-(1,2)-1-(2-bromo-4-methylphenoxy)-1,2,3,4-tetrahydronaphthalen-2-yl]piperidin-3-ylamine]
– | > 6.00 | COCCN(C)[C@H]1Cc2c(Cl)cc(Cl)cc2[C@@H]1Oc1ccc(-n2c(C)nnc2C)cc1 [Example 243, {trans-(1S,2S)-4,6-dichloro-1-[4-(3,5-dimethyl-[1,2,4]triazol-4-yl)phenoxy]indan-2-yl}-(2-methoxyethyl)-methylamine]
– | 5.00 to 6.00 | CC(C)c1nccn1-c1ccc(O[C@H]2c3cc(Cl)cc(Cl)c3C[C@@H]2N2CC[C@@H](O)C2)cc1 [Example 732, (R)-1-{trans-(1S,2S)-4,6-Dichloro-1-[4-(2-isopropyl-imidazol-1-yl)-phenoxy]-indan-2-yl}-pyrrolidin-3-ol]
– | > 6.00 | CC(=O)Nc1cccc(O[C@H]2c3ccccc3C[C@@H]2N2CCC[C@@H](N(C)C)C2)c1 [Example 692, N-{3-[trans-(1S,2S)-2-((R)-3-dimethylaminopiperidin-1-yl)indan-1-yloxy]phenyl}acetamide]
20 to 50 | – | Cc1noc(C)c1-c1ccc(O[C@H]2c3cc(Cl)cc(Cl)c3C[C@@H]2N2CC[C@@H](O)C2)cc1 [Example 135, (R)-1-{trans-(1S,2S)-4,6-dichloro-1-[4-(3,5-dimethylisoxazol-4-yl)phenoxy]indan-2-yl}pyrrolidin-3-ol]
– | > 6.00 | CS(=O)(=O)c1ccc(O[C@H]2c3cc(Cl)cc(Cl)c3C[C@@H]2N2CCCN(CCO)CC2)cc1 [Example 385, 2-{4-[trans-(1S,2S)-4,6-dichloro-1-(4-methanesulfonylphenoxy)indan-2-yl]-[1,4]diazepan-1-yl}-ethanol]
– | > 6.00 | CS(=O)(=O)c1ccc(O[C@H]2c3cc(Cl)cc(Cl)c3C[C@@H]2N2CC[C@@H](O)C2)cc1 [Example 103, (R)-1-[trans-(1S,2S)-4,6-dichloro-1-(4-methanesulfonylphenoxy)indan-2-yl]pyrrolidin-3-ol]
– | 5.00 to 6.00 | NC(=O)c1cccc(O[C@@H]2c3ccccc3C[C@H]2N2C[C@H]3CNC[C@H]3C2)c1 (racemic) [Example 410, 3-[rac-trans-(1,2)-2-(hexahydropyrrolo[3,4-c]pyrrol-2-yl)indan-1-yloxy]benzamide]
20 to 50 | – | CN(C)Cc1ccc(O[C@H]2c3ccccc3CC[C@@H]2N2CCC[C@H](N)C2)cc1 (racemic) [Example 177, (S)-1-[rac-trans-(1,2)-1-(4-dimethylaminomethylphenoxy)-1,2,3,4-tetrahydronaphthalen-2-yl]piperidin-3-ylamine]
20 to 50 | – | CN(C)C(=O)Cc1ccc(O[C@H]2c3ccccc3CC[C@@H]2N2CCC[C@@H](N)C2)cc1 (racemic) [Example 380, 2-{4-[rac-trans-(1,2)-2-((R)-3-aminopiperidin-1-yl)-1,2,3,4-tetrahydronaphthalen-1-yloxy]phenyl}-N,N-dimethylacetamide]
– | > 6.00 | CS(=O)(=O)c1ccc(O[C@H]2c3cc(Cl)cc(Cl)c3C[C@@H]2N2CCNCC2)cc1 [Example 308, 1-[trans-(1S,2S)-4,6-dichloro-1-(4-methanesulfonylphenoxy)indan-2-yl]piperazine]
– | > 6.00 | Cc1noc(C)c1-c1ccc(O[C@H]2c3ccccc3C[C@@H]2N2CCCC2)cc1 [Example 407, 3,5-dimethyl-4-[4-(trans-(1S,2S)-2-pyrrolidin-1-ylindan-1-yloxy)phenyl]-isoxazole]
20 to 50 | – | COc1cc(Cl)cc(O[C@H]2c3ccccc3CC[C@@H]2N2CCC[C@@H](N)C2)c1 (racemic) [Example 54, (R)-1-[rac-trans-(1,2)-1-(3-chloro-5-methoxyphenoxy)-1,2,3,4-tetrahydronaphthalen-2-yl]piperidin-3-ylamine]
20 to 50 | – | Fc1ccc(O[C@H]2c3ccccc3C[C@@H]2N2CCCC2)c(-c2ccn[nH]2)c1 [Example 575, 5-[5-fluoro-2-(trans-(1S,2S)-2-pyrrolidin-1-ylindan-1-yloxy)phenyl]-1H-pyrazole]

inhibition at 10 µM [%] | pIC50 | SMILES
– | > 6.00 | CS(=O)(=O)c1ccc(O[C@H]2c3cc(Cl)cc(Cl)c3C[C@@H]2N2CC[C@@H](N3CCCC3)C2)cc1 [Example 99, (R)-1′-[trans-(1S,2S)-4,6-dichloro-1-(4-methanesulfonylphenoxy)indan-2-yl]-[1,3′]bipyrrolidinyl]
– | > 6.00 | COc1cccc(F)c1O[C@@H]1c2ccccc2C[C@H]1N1CCC(CN)CC1 (racemic) [Example 604, C-{1-[rac-trans-(1,2)-1-(2-fluoro-6-methoxyphenoxy)indan-2-yl]piperidin-4-yl}methylamine]
– | > 6.00 | Cn1ccn(-c2ccc(O[C@H]3c4cc(Cl)cc(Cl)c4C[C@@H]3N3CC[C@@H](O)C3)cc2)c1=O [Example 331, 1-{4-[trans-(1S,2S)-4,6-dichloro-2-((R)-3-hydroxypyrrolidin-1-yl)indan-1-yloxy]phenyl}-3-methyl-1,3-dihydroimidazol-2-one]
– | > 6.00 | Cc1nnc(C)n1-c1ccc(O[C@H]2c3cc(Cl)cc(Cl)c3C[C@@H]2N2CC[C@H](O)C2)c(F)c1 [Example 200, (S)-1-{(1S,2S)-4,6-dichloro-1-[4-(3,5-dimethyl-[1,2,4]triazol-4-yl)-2-fluorophenoxy]indan-2-yl}pyrrolidin-3-ol]
– | 5.00 to 6.00 | N#Cc1ccc(O[C@@H]2c3ccccc3C[C@H]2N2CCC[C@@H](N)C2)cc1F (racemic) [Example 522, 4-[rac-trans-(1,2)-2-((R)-3-aminopiperidin-1-yl)indan-1-yloxy]-2-fluorobenzonitrile]
– | 5.00 to 6.00 | CN1CCC2CN([C@H]3Cc4c(Cl)cc(Cl)cc4[C@@H]3Oc3ccc(S(C)(=O)=O)cc3)CC21 (single isomer, unassigned) [Example 582]
– | 5.00 to 6.00 | COc1cccc(F)c1O[C@@H]1c2ccccc2C[C@H]1N(C)C1CCNCC1 (racemic) [Example 215, [rac-trans-(1,2)-1-(2-fluoro-6-methoxyphenoxy)indan-2-yl]methylpiperidin-4-ylamine]
– | > 6.00 | NS(=O)(=O)c1ccc(O[C@@H]2c3ccccc3C[C@H]2NCC2CCC2)c(F)c1 (racemic) [Example 718, 4-[rac-trans-(1,2)-2-(Cyclobutylmethyl-amino)-indan-1-yloxy]-3-fluoro-benzenesulfonamide]
– | > 6.00 | NC(=O)c1ccc(O[C@@H]2c3ccccc3C[C@H]2N2CCC[C@@H](N)C2)cc1 (racemic) [Example 524, 4-[rac-trans-(1,2)-2-((R)-3-aminopiperidin-1-yl)indan-1-yloxy]benzamide]
– | > 6.00 | CS(=O)(=O)c1ccc(O[C@H]2c3cc(Cl)cc(Cl)c3C[C@@H]2N2CCCN(CCF)CC2)cc1 [Example 303, 1-[trans-(1S,2S)-4,6-dichloro-1-(4-methanesulfonylphenoxy)indan-2-yl]-4-(2-fluoroethyl)-[1,4]diazepane]
– | > 6.00 | N[C@@H]1CCCN([C@@H]2Cc3ccccc3[C@H]2Oc2ccc(-n3cncn3)cc2)C1 (racemic) [Example 62, (R)-1-[rac-trans-(1,2)-1-(4-[1,2,4]triazol-1-ylphenoxy)indan-2-yl]piperidin-3-ylamine]
– | 5.00 to 6.00 | NC1CCN([C@@H]2Cc3ccccc3[C@H]2Oc2ccnc3ccccc23)C1 (mixture of isomers) [Example 275, 1-[rac-trans-(1,2)-1-(quinolin-4-yloxy)indan-2-yl]pyrrolidin-3-ylamine]
20 to 50 | – | CN(C)C[C@@H]1Cc2ccccc2[C@H]1Oc1ccc(S(C)(=O)=O)cc1 (racemic) [Example 244]
– | 5.00 to 6.00 | N#Cc1ccc(O[C@H]2c3ccccc3CC[C@@H]2N2CCC[C@H](N)C2)c(F)c1F (racemic) [Example 528, 4-[rac-trans-(1,2)-2-((S)-3-aminopiperidin-1-yl)-1,2,3,4-tetrahydronaphthalen-1-yloxy]-2,3-difluorobenzonitrile]
20 to 50 | – | Fc1ccc(O[C@H]2c3cc(Cl)cc(Cl)c3C[C@@H]2N2CCC2)c2ncccc12 [Example 591, 8-((1S,2S)-2-azetidin-1-yl-4,6-dichloroindan-1-yloxy)-5-fluoroquinoline]
– | 5.00 to 6.00 | N#Cc1ccc(O[C@@H]2c3ccccc3C[C@H]2N2CCC(N)C2)c(Cl)c1 (mixture of isomers) [Example 543, 4-[rac-trans-(1,2)-2-(3-aminopyrrolidin-1-yl)indan-1-yloxy]-3-chlorobenzonitrile]
